# Source: patent US4734416A, “Pharmaceutically useful carbostyril derivatives” (Otsuka Pharmaceutical Co., Ltd., priority 1978, dated 1988)
# Counter-ions that a name gives are not always drawn.
# Experiments:
# [1] = Halothane anesthesia increasing activity (righting reflex); assay type: in vivo, mouse (male, ddy-strain); details: oral; for Time (minutes) between introduction of anesthesia and waking: 8 mg/kg, 1 hour before 4% Halothane
# Method: Male mice of ddy-strain having about 20 g body weight are used. One test group consists of 10 mice. An aqueous Gummi Arabicum suspension of test compound (80 mg of a compound to be tested and 1 g of Gummi Arabicum/100 ml of physiological NaCl solution) is administered orally to each mouse at the dosage of 8 mg of test compound/kg body. One hour after the administration, each mouse is placed in a gas respiration chamber (13×13×24 cm) and oxygen gas containing 4% of Halothane [2-bromo-2-chloro-1,1,1-trifluoroethane] is blown into the chamber at the velocity of 2 l/min for 3 minutes. A mouse anaesthetized is taken out from the chamber and the time between the introduction of anesthesia to waking is measured by righting reflex as the index. To mice of the control group, 1% Gummi Arabicum aqueous physiological solution is orally administered at the dosage of 0.1 ml/10 g body. [Reference: M. J. Turnbull and J. W. Watkins: Br. J. Pharmac., 58, 27-35 (1976)]
# Same procedures as mentioned in (II)-(A) are employed, except that the amount of test compound to be orally administered is changed in 4 steps at the dosage of 0.5 mg/kg, 1 mg/kg, 2 mg/kg and 4 mg/kg respectively to measure the relationship between the dosage and degree of strength of anesthesia increasing activity.
# [2] = Activity for inhibiting fighting behavior of mouse isolated singly for a long period of time; assay type: in vivo, mouse (male, ddy-strain); details: positive if fighting no longer than 5 seconds in a minute, range in parentheses, read-out: ED50 (inhibition of fighting behavior)
# Method: Individual male mice of ddy-strain having 15 to 20 g of body weight are breeded separately in respective cages for 1 month. One test group consists of 10 pairs of mice. The pairs of mice are selected so that when one mouse is taken into the home cage of another, the two mice fight together continuously for over 30 seconds. ED50 values are calculated by administering the respective test compounds to each test groups of mice. Activity for inhibiting fighting behavior of the test compound is determined as positive in case the administered mice only continue the fighting for no longer than 5 seconds in a minute. When the mice continue the fighting over 5 seconds they are forced to separate for the purpose of reducing the number of injured mice. [Reference: C. Y. Yen, R. L. Stanger and N. Millman: Arch. Int. Pharmacodyn., 123, 179 (1959)]
# [3] = target: T1, enucleated ileum of a guinea pig (Cavia porcellus, UniProt P31389); assay: Antihistamine activity test in vitro (enucleated guinea pig ileum, histamine retraction, pA2 by Van Rossam method); details: 10^-6 g/ml test compound, 5 minutes before histamine, 36° C.
# T1 construct: the tissue of ileum is cut to a length of 2.5 to 3.0 cm and suspended in an organ bath; from tissue; host or cells: isolated ileum from the ileocecal region of male guinea pig
# Method: As to the test method for determining antihistamine activity of a compound in vitro, a method of using an enucleated ileum of a guinea pig is generally accepted.
# A male guinea pig having 300 to 500 g body weight is killed by blood letting. An ileum having a length of 15 cm being enculeated from the ileocecal region is dipped into Tyrode's solution (which is prepared from […], 0.2 g of KCl, 0.2 g of CaCl2, 1.0 g of glucose, 1.0 g of NaHCO3, 0.065 g of NaHPO4.2H2 O and 0.2135 g of MgCl2.6H2 O to make 1000 ml in total volume by adding water). Then the tissue of ileum is cut to a length of 2.5 to 3.0 cm and suspended in an organ bath filled with 30 ml of Tyrode's solution. The organ bath is kept at a temperature of 36° C. and a mixed gas consisting of 5% of CO2 and 95% of O2 is blown into the bath. 10 Minutes after the blowing, 10^-6 M of histamine is added to the bath to examine the sensitivity of the tissue and a reaction curve (control) with respect to the dosage of histamine is obtained. After the dosage of histamine-reaction curve (control) becomes constant, 10^-6 g/ml of a compound to be tested is added to the bath and further histamine is added 5 minutes later to obtain a dosage-reaction curve. Retraction of the ileum is recorded on a pen-recorder through an isotonic transducer [TD-112S manufactured by Nihon Koden]. Antihistamine activity of the test compound is determined as pA2 value by the "Van Rossam" method [J. M. Van Rossam; Arch. Inst. Pharmacodyn., 143, 299 (1963)] wherein the maximum retraction of ileum caused by histamine shown in the control curve is 100%.
# in vivo = details: mouse
# Method: Mice of ddy-strain having 20-22 g of body weight are used. One test group consists of 10 mice.
# Oral administration: Compound to be tested is suspended in 1% Gummi Arabicum physiological NaCl aqueous solution.
# Intravenuous administration: Compound to be tested is dissolved in 50% propyleneglycol aqueous solution.
# [4] = Hexabarbital sleep increasing activity (righting reflex); assay type: in vivo, mouse (male, ddy-strain); details: oral, Hexabarbital Na 70 mg/kg i.p.
# Method: Male mice of ddy-strain having 20 to 25 g body weight are starved for 24 hours. One test group consists of 10 mice. An aqueous Gummi Arabicum suspension of test compound (0.05 g of test compound and 1 g of Gummi Arabicum/100 ml of physiological NaCl solution) is administered orally at the dosage mentioned in the Table 4. One hour after the administration 0.7% of Hexabarbitol.Na-salt is intraperitonerally administered at the dosage of 70 mg/kg body weight. The time between the introduction of sleep to waking is measured by righting reflex as the index. [Reference: A. M. Hjort, De E. J. Beer and D. W. Fassett; J. Pharmac., Exptl.
# [5] = Analgetic activity (acetic acid writhing); assay type: in vivo, mouse (male, ddy-strain); details: Mus musculus, read-out: ED50 (analgetic activity)
# Method: Male mice of ddy-strain having 15-23 g of body weight are used. One test group consists of 10 mice. The compound to be tested is administered orally by procedures similar to the method mentioned in (II). Fifty minutes after the administration, 0.1 ml of 0.6% acetic acid aqueous solution/10 g body weight is injected intraperitoneally. In case of the mice administered orally with the reference compound (Haloperidol), the injection is made 110 minutes after the administration. The number of writhings shown after 10 minutes is counted for 10 minutes and the ED50 value of respective compounds is calculated in comparison with the number of writhings shown by control group. [Reference: R. Koster, M. Anderson and E. I. Debeer: Fed. Proc., 18, 412, (1959)]
# [6] = 50 min, oral, 50 minutes before acetic acid i.p., range in parentheses
# T1 sequence (P31389 whole entry): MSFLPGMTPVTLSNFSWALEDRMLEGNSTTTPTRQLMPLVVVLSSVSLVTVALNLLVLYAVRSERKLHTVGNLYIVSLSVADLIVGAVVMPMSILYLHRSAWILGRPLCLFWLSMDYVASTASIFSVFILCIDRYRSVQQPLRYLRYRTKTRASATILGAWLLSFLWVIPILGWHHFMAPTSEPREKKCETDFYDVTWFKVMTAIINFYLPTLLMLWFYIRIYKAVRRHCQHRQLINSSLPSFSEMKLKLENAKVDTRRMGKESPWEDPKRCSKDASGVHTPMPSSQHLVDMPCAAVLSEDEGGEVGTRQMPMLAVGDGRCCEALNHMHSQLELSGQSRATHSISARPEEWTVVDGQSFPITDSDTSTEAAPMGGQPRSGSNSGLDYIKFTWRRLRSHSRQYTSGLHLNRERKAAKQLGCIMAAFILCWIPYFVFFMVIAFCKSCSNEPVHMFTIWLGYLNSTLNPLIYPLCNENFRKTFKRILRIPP
smiles,measurement,setting,value
"O=C1CCc2c(cccc2OCCCN2CCN(c3ccccc3)CC2)N1 [Compound 5, 5-[3-(4-Phenylpiperazinyl)propoxy]-3,4-dihydrocarbostyril dihydrochloride]",Anesthesia increasing activity,[1]; 0.5 mg/kg,5.2 ± 2.1 min
same,Anesthesia increasing activity,[1]; 1 mg/kg,8.5 ± 3.5 min
same,Anesthesia increasing activity,[1]; 2 mg/kg,9.6 ± 4.1 min
same,Anesthesia increasing activity,[1]; 4 mg/kg,12.7 ± 3.9 min
same,Time (minutes) between introduction of anesthesia and waking,[1],16.9 ± 7.9 min
same,ED50,[2],1.28 mg/kg
same,Kb,[3],1.35 nM
"CN1C(=O)CCc2c(OCC(O)CN3CCN(c4ccccc4)CC3)cccc21 (stereo not shown) [Compound 7, 1-Methyl-5-[2-hydroxy-3-(4-phenylpiperazinyl)propoxy]-3,4-dihydrocarbostyril monohydrochloride]",Anesthesia increasing activity,[1]; 0.5 mg/kg,5.3 ± 2.5 min
same,Anesthesia increasing activity,[1]; 1 mg/kg,7.4 ± 3.1 min
same,Anesthesia increasing activity,[1]; 2 mg/kg,9.5 ± 3.8 min
same,Anesthesia increasing activity,[1]; 4 mg/kg,13.7 ± 4.7 min
same,Time (minutes) between introduction of anesthesia and waking,[1],8.9 ± 2.4 min
same,LD50,"in vivo; iv, female mice",432 mg/kg
same,LD50,"in vivo; iv, male mice",424 mg/kg
same,LD50,"in vivo; po, female mice",1650 mg/kg
same,LD50,"in vivo; po, male mice",1600 mg/kg
same,Kb,[3],0.132 nM
"CN1C(=O)CCc2c(OCCCN3CCN(c4ccccc4)CC3)cccc21 [Compound 9, 1-Methyl-5-[3-(4-phenylpiperazinyl)propoxy]-3,4-dihydrocarbostyril monohydrochloride]",Time (minutes) between introduction of anesthesia and waking,[1],9.5 ± 3.2 min
same,ED50,[2],1.52 mg/kg
same,Kb,[3],0.0263 nM
"COc1ccccc1N1CCN(CCCOc2ccc3c(c2)NC(=O)CC3)CC1 [Compound 17, 7-{3-[4-(2-Methoxyphenyl)piperazinyl]propoxy}-3,4-dihydrocarbostyril]",Time (minutes) between introduction of anesthesia and waking,[1],13.6 ± 5.2 min
same,LD50,"in vivo; iv, female mice",216 mg/kg
same,LD50,"in vivo; iv, male mice",218 mg/kg
same,LD50,"in vivo; po, female mice",860 mg/kg
same,LD50,"in vivo; po, male mice",898 mg/kg
same,ED50,[2],0.92 mg/kg
same,Kb,[3],0.871 nM
same,Sleep time (min.) [Mean ± SD],[4]; 0.125 mg/kg,39.51 ± 8.45 min
same,Sleep time (min.) [Mean ± SD],[4]; 0.25 mg/kg,45.57 ± 10.05 min
same,Sleep time (min.) [Mean ± SD],[4]; 0.5 mg/kg,51.77 ± 6.60 min
same,Sleep time (min.) [Mean ± SD],[4]; 1.0 mg/kg,56.92 ± 6.13 min
"O=C1CCc2c(cccc2OCCCN2CCN(C3CCCCC3)CC2)N1 [Compound 30, 5-[3-(4-Cyclohexylpiperazinyl)propoxy]-3,4-dihydrocarbostyril]",Time (minutes) between introduction of anesthesia and waking,[1],7.9 ± 3.7 min
same,Kb,[3],44.7 nM
"O=C1CCc2c(cccc2OCCCN2CCCN(c3ccccc3)CC2)N1 [Compound 31, 5-[3-(4-Phenylhomopiperazinyl)propoxy]-3,4-dihydrocarbostyril]",Time (minutes) between introduction of anesthesia and waking,[1],8.2 ± 3.9 min
same,LD50,"in vivo; iv, female mice",248 mg/kg
same,LD50,"in vivo; iv, male mice",256 mg/kg
same,LD50,"in vivo; po, female mice",923 mg/kg
same,LD50,"in vivo; po, male mice",870 mg/kg
same,Kb,[3],0.263 nM
same,ED50,[5]; [6],1.92 mg/kg
"CC(=O)OCCN1CCN(CCCOc2ccc3c(c2)NC(=O)CC3)CC1 [Compound 32, 7-{3-[4-(2-Acetyloxyethyl)piperazinyl]propoxy}-3,4-dihydrocarbostyril]",Time (minutes) between introduction of anesthesia and waking,[1],7.9 ± 3.1 min
same,Kb,[3],30.2 nM
"O=C1CCc2ccc(OCCCN3CCN(CCO)CC3)cc2N1 [Compound 33, 7-{3-[4-(2-Hydroxyethyl)piperazinyl]propoxy}-3,4-dihydrocarbostyril]",Time (minutes) between introduction of anesthesia and waking,[1],7.4 ± 2.6 min
same,Kb,[3],95.5 nM
"CC(=O)N1CCN(CCCOc2ccc3c(c2)NC(=O)CC3)CC1 [Compound 34, 7-[3-(4-Acetylpiperazinyl)propoxy]-3,4-dihydrocarbostyril]",Time (minutes) between introduction of anesthesia and waking,[1],7.8 ± 3.4 min
same,Kb,[3],57.5 nM
"O=C1CCc2ccc(OCCCN3CCN(C(=O)c4ccccc4)CC3)cc2N1 [Compound 35, 7-[3-(4-Benzoylpiperazinyl)propoxy]-3,4-dihydrocarbostyril]",Time (minutes) between introduction of anesthesia and waking,[1],8.2 ± 3.7 min
same,Kb,[3],2.63 nM
"O=c1ccc2cc(OCCCN3CCN(c4ccccc4)CC3)ccc2[nH]1 [Compound 36, 6-[3-(4-Phenylpiperazinyl)propoxy]carbostyril]",Time (minutes) between introduction of anesthesia and waking,[1],15.3 ± 3.1 min
same,Kb,[3],10.2 nM
"O=c1ccc2ccc(OCCCN3CCN(c4ccccc4)CC3)cc2[nH]1 [Compound 37, 7-[3-(4-Phenylpiperazinyl)propoxy]carbostyril]",Time (minutes) between introduction of anesthesia and waking,[1],13.1 ± 6.0 min
same,ED50,[2],0.78 mg/kg
same,Kb,[3],0.295 nM
same,ED50,[5]; [6],1.52 mg/kg
"O=C1CCc2ccc(OCCCN3CCN(c4cccc(Cl)c4)CC3)cc2N1 [Compound 39, 7-{3-[4-(3-Chlorophenyl)piperazinyl]propoxy}-3,4-dihydrocarbostyril]",Time (minutes) between introduction of anesthesia and waking,[1],5.0 ± 2.9 min
same,LD50,"in vivo; iv, female mice",293 mg/kg
same,LD50,"in vivo; iv, male mice",310 mg/kg
same,LD50,"in vivo; po, female mice",1100 mg/kg
same,LD50,"in vivo; po, male mice",1210 mg/kg
same,ED50,[2],0.96 mg/kg
same,Kb,[3],0.182 nM
"CN1C(=O)CN=C(c2ccccc2)c2cc(Cl)ccc21 [Diazepam, reference compound]",ED50,[2],7.29 mg/kg
"O=C(CCCN1CCC(O)(c2ccc(Cl)cc2)CC1)c1ccc(F)cc1 [Haloperidol, reference compound]",Anesthesia increasing activity,[1]; 0.5 mg/kg,5.3 ± 2.9 min
same,Anesthesia increasing activity,[1]; 1 mg/kg,5.1 ± 2.5 min
same,Anesthesia increasing activity,[1]; 2 mg/kg,9.3 ± 3.1 min
same,Anesthesia increasing activity,[1]; 4 mg/kg,10.2 ± 3.7 min
same,Sleep time (min.) [Mean ± SD],[4]; 4 mg/kg,43.01 ± 19.22 min
same,Sleep time (min.) [Mean ± SD],[4]; 8 mg/kg,46.83 ± 13.94 min
same,Sleep time (min.) [Mean ± SD],[4]; 16 mg/kg,66.81 ± 14.32 min
same,ED50,"[5]; po, 110 min",2.31 mg/kg
